Test [1] has as its system sarcoma-180 tumors. The settings on record: mice infected with sarcoma-180 tumors; cited from earlier work.
In test [2] the test system is TNF-α secretion from h-PBMC's. As to the kind of experiment: TNF-α release from h-PBMC's, ELISA. As to conditions: for TNF-α secreted in the presence of 17c-21c: 24 hours, ± SD. Type of test: cell-based, human. The protocol: (§1) Authentic samples of agrimoniin and coriariin A were supplied by Professor Yoshida (Okayama University, Japan). Dimeric gallotannin (analog of coriariin A) and β-D-PGG were synthesized as described. LPS (E. coli 055:B5 phenol extract, MW range 50-100 KD). Ficoll-Histopaque (ρ=1.077 g/mL), Fetal Bovine Serum, sterile, hybridoma tested (FCS), gentamicin 10 mg/mL. L-glutamine, 200 mM. Dextran B-512 Leuconostoc Av M.W. 580000, and Trypan Blue stain were purchased from Sigma. Hanks Buffer Saline Solution 1×, with phenol red, mediatech (HBSS) and RPMI 1640 1×, mediatech were purchased from Fisher Scientific, Human IL-1β and TNF-α Enzyme Linked ImmunoSorbent Assay (ELISA) kits were purchased from R and D Systems, Minneapolis, Minn. Fresh heparinized blood was obtained from health human subjects (ages 20-34).
(§2) Dose-Response Data: General Procedure. H-PBMC's were isolated by reported procedures (10. 18). The cells counted and the viability was determined by Trypan Blue exclusion (typically, viability exceeded 95%). The concentration of the cells in the 0.5 mL wells was adjusted to 1×10^6 cells/well by diluting with the required amount of RPMI.
(§3) The appropriate amount of a tannin (or LPS) stock solution in HBSS was added to each well to furnish the concentration values reported in the Figures. […] The culture plates were incubated in a 5% CO2, 37° C. humidified incubator for the indicated time. At the end of the time interval, 450 μL of the culture supernatant from each well was harvested, after centrifugation at 400 g, 25° C., 10 min. with brake, and stored at −78° C. pending ELISA analysis for the cytokine(s). The ELISA assays were conducted per the manufacturer's instructions using standard calibration curves to calculate cytokine concentration from observed absorbance readings. The cytokine values reported are averages of three runs±SE.
(§4) The dimeric antitumor ellagitannins coriariin A and agrimoniin, the monomeric gallotannin β-D-pentagalloylglucose (β-D-PGG) and the dimeric gallotannin of this invention were all examined in this study. The dimeric gallotannin is an analog of coriariin A and is identical to the parent ellagitannin except that the galloyl rings at O(4) and O(6) are not joined in a hexahydroxydiphenoyl (HHDP) linkage. h-PBMC's were incubated with the compound under investigation for the indicated length of time and the amounts of both IL-1β and, independently, TNF-α, present in the culture supernatants was determined using commercially available ELISA kits. In each case, LPS was used as a positive control while untreated cells were reserved as negative controls.
In the first study, the induction of TNF-α secretion from h-PBMC's in the presence of each compound 17c-21c was measured. The h-PBMC's were incubated with each compound for 24 hours. The TNF-α levels in the cell culture supernatant were assayed by Enzyme Linked ImmunoSorbant Assay (ELISA). The data point for each assay represent the mean of triplicate measurements. […] (See FIG. 11).

In test [3] the test system is IL-1β secretion from h-PBMC's. Description: IL-1β release from h-PBMC's, ELISA. Type of test: cell-based, human. The settings on record: h-PBMC's 2nd subject, ± SD. The protocol:
as §1, §2, §3, §4
In the third study, compounds 17c-20c were examined for their ability to induce secretion of IL-1β from h-PBMC's (FIG. 16). Recall from the introduction that the cytokine IL-1β is also released in an LPS-stimulated septic shock response. The compounds that cause very little secretion of IL-1β or none at all will be the optimal compounds for potential septic shock therapeutics because they will be less likely themselves to induce a septic shock response.
A general note: ELISA stands for enzyme-linked immunosorbent assay.

Test [4] deals with LPS induced TNF-α secretion from h-PBMC's. As to the kind of experiment: Inhibition of LPS induced TNF-α secretion from h-PBMC's. The settings on record: LPS 5 μg/mL; for TNF-α secreted in the presence of LPS and 17c-20c: compound 10 μg/mL added after 45 minutes, h-PBMC's 3rd subject, ± SD. The class given is cell-based, human. The protocol: In the second study, the ability of compounds 17c-20c to inhibit LPS induced TNF-α production in h-PBMC's was investigated using four assays. The first experiment was a kinetics run in which the h-PBMC's were initially incubated with a fixed concentration of LPS (5 μg/mL) for 45 minutes. This incubation period was followed by addition of a fixed concentration (10 μg/mL) of compounds 17c-20c. The cells were harvested at varying intervals of time. […] The optimal time was determined by comparing the amount of TNF-α secreted by LPS alone to the amount of TNF-α secreted by LPS and substrate at each time point.
The second assay determined the minimum amount of substrate required for inhibition. LPS (10 μg/mL) was incubated with h-PBMC's for 45 minutes followed by addition of 17c-20c at varying concentrations. The cell culture supernatant was harvested after 8 hours. The inherent variability in using cells from different subjects, or in the day of assay, made it difficult to compare overall effectiveness of inhibitors. Therefore, to more easily identify the concentration at which maximum inhibition occurs for a given compound, the TNF-α secretion was normalized by calculating a percent of maximum secretion value (based on LPS alone) (FIG. 13). […] The optimal concentration for inhibition varied between substrates, but the general dose response trend was the same. Overall, the maximum inhibition was 45% for 18c and 20c, and 25% for 19c.
The third assay investigated the ability of 17c, 18c, and 20c to inhibit LPS induced TNF-α secretion using a smaller dosage of LPS (5 μg/mL) (FIG. 14). Again, the response was dose dependent. The maximum inhibition was 45% for 17c and 20c, and 35% for 18c.
In the fourth assay the varying concentrations of substrates 17c-20c and LPS were added at the same time to determine the effect of addition sequence on the inhibition of TNF-α secretion (FIG. 15). The addition time seemed to make a difference in the overall dose response trend. However, maximum inhibition was the same as when the compounds were added 45 minutes after LPS addition (about 40% for each compound).
Finally, in the last study, analogs 19c and 20c were again tested for inhibition LPS induced TNF-α secretion (FIG. 17). In this assay a smaller dose of LPS was used to determine if inhibition was greater when much lower doses of LPS were present. The substrates were added 45 minutes after LPS addition and the cells were harvested after 8 hours. It doesn't appear as though the substrates are better inhibitors when smaller amounts of LPS are used, again perhaps reflecting receptor saturation with LPS at this dosage.

`O=C(O[C@H]1[C@@H]2OC(=O)c3cc(O)c(O)c(O)c3-c3c(cc(O)c(O)c3O)C(=O)OC[C@H]2OC(O)[C@@H]1OC(=O)c1cc(O)c(O)c(O)c1)c1cc(O)c(O)c(O)c1` (stereo partly drawn) [tellimagrandin I]: the “antitumor effect, in words” value in test [1] is “much less effective antitumor agents”.
Regarding `O=C(OC1O[C@@H]2COC(=O)c3cc(O)c(O)c(O)c3-c3c(cc(O)c(O)c3O)C(=O)O[C@H]2[C@H](OC(=O)c2cc(O)c(O)c(O)c2)[C@H]1OC(=O)c1cc(O)c(O)c(O)c1)c1cc(O)c(O)c(O)c1` (stereo partly drawn) [Compound 2, tellimagrandin II], in test [1], the “antitumor effect, in words” value is listed as “much less effective antitumor agents”.
Consider “1,1′-2,2′,3,3′,4,4′,6,6′-Tetrakis(3,4,5-trihyroxybenzoyl)-β,β′-D,D′-glucopyranosyl-(2,3′-oxy-di-benzoate) [Compound 21c]”, for which the “TNF-α secretion from h-PBMC's, in words” value in test [2] is listed as “significant amount of TNF-α secretion”. Moreover, the “TNF-α secreted in the presence of 17c-21c” value (shortened to “TNF-α secreted … of 17c-21c”) in test [2] (compound 0.6 μM) was found to be 140.7 ± 50.1 pg/mL; in test [2] (compound 2.8 μM), 80.3 ± 38.1 pg/mL; in test [2] (compound 5.6 μM), 61.9 ± 11.7 pg/mL; in test [2] (compound 11.2 μM), 96.2 ± 8.9 pg/mL; in test [2] (compound 16.8 μM) it was 379.3 ± 156.6 pg/mL; in test [2] (compound 22.3 μM) it was 618.0 ± 182.0 pg/mL. Further, the “TNF-α secreted … of 17c-21c” value in test [2] (compound 27.9 μM) came to 899.0 ± 368.4 pg/mL.
Consider `O=C(OC[C@H]1O[C@@H](OC(=O)c2ccc(C(=O)O[C@@H]3O[C@H](COC(=O)c4cc(O)c(O)c(O)c4)[C@@H](OC(=O)c4cc(O)c(O)c(O)c4)[C@H](OC(=O)c4cc(O)c(O)c(O)c4)[C@H]3OC(=O)c3cc(O)c(O)c(O)c3)cc2)[C@H](OC(=O)c2cc(O)c(O)c(O)c2)[C@@H](OC(=O)c2cc(O)c(O)c(O)c2)[C@@H]1OC(=O)c1cc(O)c(O)c(O)c1)c1cc(O)c(O)c(O)c1` [Compound 17c, 1,1′-O-2,2′,3,3′,4,4′,6,6′-Tetrakis(3,4,5-trihydroxybenzoyl)-β,β′-D,D′-glucopyranosylterephthalate], for which the “IL-1β secreted in the presence of 17c-20c” value in test [3] (compound 0.6 μM) is reported as 0 pg/mL; in test [3] (compound 2.9 μM) it was 0 pg/mL; in test [3] (compound 5.9 μM), 3.2 ± 3.6 pg/mL; in test [3] (compound 11.8 μM) it was 329.7 ± 443.0 pg/mL; in test [3] (compound 17.6 μM), 140.5 ± 195.6 pg/mL; in test [3] (compound 23.5 μM), 630.6 ± 283.1 pg/mL. The “IL-1β secreted in the presence of 17c-20c” value in test [3] (compound 29.4 μM) was 690.1 ± 101.0 pg/mL. Further, the “TNF-α secreted … of 17c-21c” value in test [2] (compound 0.6 μM) is 0 pg/mL; in test [2] (compound 2.9 μM) it was 0 pg/mL; in test [2] (compound 5.9 μM) it was 0 pg/mL; in test [2] (compound 11.8 μM), 0.26 ± 0.37 pg/mL; in test [2] (compound 17.6 μM), 0 pg/mL; in test [2] (compound 23.5 μM), 0.26 ± 0.37 pg/mL. The “TNF-α secreted … of 17c-21c” value in test [2] (compound 29.4 μM) was 2.5 ± 3.5 pg/mL. Also, the “TNF-α secreted in the presence of LPS and 17c-20c” value is 511.2 ± 288.3 pg/mL in test [4] (time 1 h); 1896.3 ± 140.9 pg/mL in test [4] (time 4 h); 2477.0 ± 148.2 pg/mL in test [4] (time 8 h); 2574.4 ± 459.9 pg/mL in test [4] (time 12 h); 1811.6 ± 352.9 pg/mL in test [4] (time 16 h); 2266.1 ± 353.3 pg/mL in test [4] (time 24 h). Further, the “maximum inhibition of LPS induced TNF-α secretion” value in test [4] (3rd subject) is 45%.
With gemin A, in test [1], the “antitumor effect, in words” value is recorded as “induce tumor regression”.
Take `O=C1OC[C@H]2OC(O)[C@@H]3OC(=O)c4cc(O)c(O)c(O)c4-c4c(cc(O)c(O)c4O)C(=O)O[C@H]3[C@@H]2OC(=O)c2cc(O)c(O)c(O)c2-c2c1cc(O)c(O)c2O` (stereo partly drawn) [pedunculagin]: the “antitumor effect, in words” value in test [1] is recorded as “much less effective antitumor agents”.

These data come from patent publication US7288273B1, “Gallotannins and ellagitannins as regulators of cytokine release” (The Penn State Research Foundation, priority 2000, dated 2007).
